Laboratory results from patent publication US20240066027A1 (DOMAIN THERAPEUTICS, priority 2020, published 2024).
pIC50: −log10 of the molar value.

Tests used:
[1] = target: T1, human PAR-2 (hPAR-2) receptor expressed in HEK-293 T cells in an endogenous manner (Homo sapiens, UniProt P55085); assay: In vitro human PAR-2 functional antagonist activity using calcium assays (Fluo4AM, FLIPR Tetra); type: cell-based; conditions: HEK-293 T cells stimulated by an EC80 of the 2-Furoyl-LIGRLO-NH2 peptide after 10 min incubation with compound; 20 concentrations, duplicate, two independent experiments
T1 construct: human PAR-2 (hPAR-2) receptor expressed in HEK-293 T cells in an endogenous manner; endogenous in cells; host or cells: HEK-293 T cells
T1 sequence (P55085 26-397): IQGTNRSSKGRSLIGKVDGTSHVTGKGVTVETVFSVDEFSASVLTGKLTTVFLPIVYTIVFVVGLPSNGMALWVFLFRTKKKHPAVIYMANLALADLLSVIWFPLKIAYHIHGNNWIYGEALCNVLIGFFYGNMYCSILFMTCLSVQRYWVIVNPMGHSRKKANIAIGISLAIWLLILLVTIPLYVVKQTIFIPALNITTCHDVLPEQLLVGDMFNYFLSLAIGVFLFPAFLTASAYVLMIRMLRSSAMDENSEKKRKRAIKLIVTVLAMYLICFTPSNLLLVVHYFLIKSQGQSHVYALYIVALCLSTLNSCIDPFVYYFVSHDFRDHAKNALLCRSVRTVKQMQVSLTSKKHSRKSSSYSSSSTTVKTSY
In short: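 Fluo4AM-loaded HEK-293 T cells were exposed to compound for 10 min to read agonist effect. They were then stimulated with an EC80 of 2-Furoyl-LIGRLO-NH2 and intracellular calcium was recorded for 5 more min on FLIPR. Antagonism was scored against buffer basal and EC80 agonist-alone signals.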

Row | SMILES | pIC50 [1] | melting point [°C]
1 | CC(C)Cn1cc(-c2cncnc2)c2ccc(C(=O)N3CCNC(=O)C3(C)C)nc21 [Example 36, 4-(1-isobutyl-3-(pyrimidin-5-yl)-1H-pyrrolo[2,3-b]pyridine-6-carbonyl)-3,3-dimethylpiperazin-2-one] | < 5.00 | 185 to 190
2 | CC(C)Cn1cc(-c2ccncc2)c2ccc(C(=O)N3CCNC(=O)C3(C)C)nc21 [Example 37, 4-(1-isobutyl-3-(pyridin-4-yl)-1H-pyrrolo[2,3-b]pyridine-6-carbonyl)-3,3-dimethylpiperazin-2-one] | < 5.00 | 200 to 210
3 | CC(C)Cn1cc(-c2ccc(C(F)(F)F)nc2)c2ccc(C(=O)N3CCNC(=O)C3(C)C)nc21 [Example 43, 4-(1-isobutyl-3-(6-(trifluoromethyl)pyridin-3-yl)-1H-pyrrolo[2,3-b]pyridine-6-carbonyl)-3,3-dimethylpiperazin-2-one] | 5.00 to 7.70 | > 250
4 | CC(C)Cn1cc(-c2cnn(C)c2)c2ccc(C(=O)N3CCNC(=O)C3(C)C)nc21 [Example 44, 4-(1-isobutyl-3-(1-methyl-1H-pyrazol-4-yl)-1H-pyrrolo[2,3-b]pyridine-6-carbonyl)-3,3-dimethylpiperazin-2-one] | < 5.00 | > 250
5 | CC(C)Cn1cc(C2=CCOCC2)c2ccc(C(=O)N3CCNC(=O)C3(C)C)nc21 [Example 45, 4-(3-(3,6-dihydro-2H-pyran-4-yl)-1-isobutyl-1H-pyrrolo[2,3-b]pyridine-6-carbonyl)-3,3-dimethylpiperazin-2-one] | < 5.00 | 225 to 230
6 | CC(C)Cn1cc(C2CCOCC2)c2ccc(C(=O)N3CCNC(=O)C3(C)C)nc21 [Example 46, 4-(1-isobutyl-3-(tetrahydro-2H-pyran-4-yl)-1H-pyrrolo[2,3-b]pyridine-6-carbonyl)-3,3-dimethylpiperazin-2-one] | < 5.00 | > 250
7 | CC(C)Cn1cc(C2=CCNCC2)c2ccc(C(=O)N3CCNC(=O)C3(C)C)nc21 [Example 47, 4-(3-(1,2,3,6-tetrahydropyridin-4-yl)-1-isobutyl-1H-pyrrolo[2,3-b]pyridine-6-carbonyl)-3,3-dimethylpiperazin-2-one] | < 5.00 | 140 to 145
8 | CC(C)Cn1cc(C2CCCCC2)c2ccc(C(=O)N3CCNC(=O)C3(C)C)nc21 [Example 48, 4-(3-cyclohexyl-1-isobutyl-1H-pyrrolo[2,3-b]pyridine-6-carbonyl)-3,3-dimethylpiperazin-2-one] | 5.00 to 7.70 | 226 to 229
9 | CC(C)Cn1cc(-c2ccccc2)c2ccc(C(=O)N3CCNC(=O)C3(C)C)nc21 [Example 49, 4-(1-isobutyl-3-phenyl-pyrrolo[2,3-b]pyridine-6-carbonyl)-3,3-dimethyl-piperazin-2-one] | 5.00 to 7.70 | 175 to 178
10 | Cc1ccc(-c2cn(CC(C)C)c3nc(C(=O)N4CCNC(=O)C4(C)C)ccc23)cc1 [Example 51, 4-[1-isobutyl-3-(p-tolyl)pyrrolo[2,3-b]pyridine-6-carbonyl]-3,3-dimethyl-piperazin-2-one] | 5.00 to 7.70 | 207 to 212
11 | Cc1ccccc1-c1cn(CC(C)C)c2nc(C(=O)N3CCNC(=O)C3(C)C)ccc12 [Example 52, 4-[1-isobutyl-3-(o-tolyl)pyrrolo[2,3-b]pyridine-6-carbonyl]-3,3-dimethyl-piperazin-2-one] | 5.00 to 7.70 | 225 to 230
12 | CC(C)Cn1cc(-c2ccc(C(F)(F)F)cc2)c2ccc(C(=O)N3CCNC(=O)C3(C)C)nc21 [Example 55, 4-[1-isobutyl-3-[4-(trifluoromethyl)phenyl]pyrrolo[2,3-b]pyridine-6-carbonyl]-3,3-dimethyl-piperazin-2-one] | 5.00 to 7.70 | 216 to 218
13 | CC(C)Cn1cc(-c2ccc(F)cc2)c2ccc(C(=O)N3CCNC(=O)C3(C)C)nc21 [Example 56, 4-[1-isobutyl-3-[4-fluorophenyl]pyrrolo[2,3-b]pyridine-6-carbonyl]-3,3-dimethyl-piperazin-2-one] | 5.00 to 7.70 | 192 to 194
14 | CC(C)Cn1cc(-c2cccc(OC(F)(F)F)c2)c2ccc(C(=O)N3CCNC(=O)C3(C)C)nc21 [Example 57, 4-[1-isobutyl-3-[3-(trifluoromethoxy)phenyl]pyrrolo[2,3-b]pyridine-6-carbonyl]-3,3-dimethyl-piperazin-2-one] | 5.00 to 7.70 | 202 to 204
15 | COc1cc(-n2nc(C(C)(C)C)c3nc(C(=O)N4CCN(c5cc(C)c(C(=O)O)c(C)n5)CC4(C)C)ccc32)ccc1Cl [Example 60, 6-(4-(3-(tert-butyl)-1-(4-chloro-3-methoxyphenyl)-1H-pyrazolo[4,3-b]pyridine-5-carbonyl)-3,3-dimethylpiperazin-1-yl)-2,4-dimethylnicotinic acid] | < 5.00 | 127 to 139
16 | CC(C)Cc1nn(-c2ccc(C(F)(F)F)nc2)c2ccc(C(=O)N3CCNC(=O)C3(C)C)nc12 [Example 66, 4-(3-isobutyl-1-(6-(trifluoromethyl)pyridin-3-yl)-1H-pyrazolo[4,3-b]pyridine-5-carbonyl)-3,3-dimethylpiperazin-2-one] | < 5.00 | 185 to 190
17 | CC(C)Cc1nn(-c2ccc(OC(F)(F)F)cc2)c2ccc(C(=O)N3CCNC(=O)C3(C)C)nc12 [Example 79, 4-(3-isobutyl-1-(4-(trifluoromethoxy)phenyl)-1H-pyrazolo[4,3-b]pyridine-5-carbonyl)-3,3-dimethylpiperazin-2-one] | 5.00 to 7.70 | 185 to 187
18 | CC(C)Cn1cc(N2CCCCC2)c2ccc(C(=O)N3CCNC(=O)C3(C)C)nc21 [Example 82, 4-(1-isobutyl-3-(piperidin-1-yl)-1H-pyrrolo[2,3-b]pyridine-6-carbonyl)-3,3-dimethylpiperazin-2-one] | 5.00 to 7.70 | 233 to 237
19 | CCOC(=O)c1ccc(N2CCN(C(=O)c3ccn4c(-c5ccc(Cl)cc5)nc(CC(C)C)c4c3)C(C)(C)C2)nc1 [Example 218, ethyl 6-(4-(3-(4-chlorophenyl)-1-isobutylimidazo[1,5-a]pyridine-7-carbonyl)-3,3-dimethylpiperazin-1-yl)nicotinate] | < 5.00 | 
20 | CC(C)Cc1nc(-c2ccc(Cl)cc2)n2ccc(C(=O)N3CCN(c4ccc(C(=O)O)cn4)CC3(C)C)cc12 [Example 219, 6-(4-(3-(4-chlorophenyl)-1-isobutylimidazo[1,5-a]pyridine-7-carbonyl)-3,3-dimethylpiperazin-1-yl)nicotinic acid] | 5.00 to 7.70 | 
21 | Cc1cc(N2CCN(C(=O)c3ccc4c(-c5ccc(C(F)(F)F)c(F)c5)cn(C(C)(C)C)c4n3)C(C)(C)C2)nc(C)c1C(=O)O [Example 220, 6-(4-(1-(tert-butyl)-3-(3-fluoro-4-(trifluoromethyl)phenyl)-1H-pyrrolo[2,3-b]pyridine-6-carbonyl)-3,3-dimethylpiperazin-1-yl)-2,4-dimethylnicotinic acid] | > 7.70 | 
22 | CC(C)(C)c1cn(-c2ccc(Cl)c(F)c2)c2ccc(C(=O)N3CCNC(=O)C3(C)C)nc12 [Example 221, 4-(3-(tert-butyl)-1-(4-chloro-3-fluorophenyl)-1H-pyrrolo[3,2-b]pyridine-5-carbonyl)-3,3-dimethylpiperazin-2-one] | > 7.70 | 
23 | CC(C)(C)c1cn(-c2ccc(Cl)c(F)c2)c2ccc(C(=O)N3CCC(CC(=O)O)CC3)nc12 [Example 222, 2-(1-(3-(tert-butyl)-1-(4-chloro-3-fluorophenyl)-1H-pyrrolo[3,2-b]pyridine-5-carbonyl)piperidin-4-yl)acetic acid] | < 5.00 | 
24 | CC(C)Cn1cc(-c2ccc3c(c2)OCO3)c2ccc(C(=O)N3CCNC(=O)C3(C)C)nc21 [Example 223, 4-(3-(benzo[d][1,3]dioxol-5-yl)-1-isobutyl-1H-pyrrolo[2,3-b]pyridine-6-carbonyl)-3,3-dimethylpiperazin-2-one] | 5.00 to 7.70 | 
25 | CC(C)Cn1cc(-c2cc3ccccc3o2)c2ccc(C(=O)N3CCNC(=O)C3(C)C)nc21 [Example 224, 4-(3-(benzofuran-2-yl)-1-isobutyl-1H-pyrrolo[2,3-b]pyridine-6-carbonyl)-3,3-dimethylpiperazin-2-one] | 5.00 to 7.70 | 
26 | CC(C)Cn1cc(-c2cc3cc(F)ccc3[nH]2)c2ccc(C(=O)N3CCNC(=O)C3(C)C)nc21 [Example 225, 4-(3-(5-fluoro-1H-indol-2-yl)-1-isobutyl-1H-pyrrolo[2,3-b]pyridine-6-carbonyl)-3,3-dimethylpiperazin-2-one] | 5.00 to 7.70 | 
27 | CC(C)Cn1cc(-c2ccc3ccccc3c2)c2ccc(C(=O)N3CCNC(=O)C3(C)C)nc21 [Example 226, 4-(1-isobutyl-3-(naphthalen-2-yl)-1H-pyrrolo[2,3-b]pyridine-6-carbonyl)-3,3-dimethylpiperazin-2-one] | 5.00 to 7.70 | 
28 | CC(C)Cc1nn(-c2ccc(Cl)c(F)c2)c2ccc(C(=O)N3CCNC(=O)C3(C)C)cc12 [Example 228, 4-(1-(4-chloro-3-fluorophenyl)-3-isobutyl-1H-indazole-5-carbonyl)-3,3-dimethylpiperazin-2-one] | 5.00 to 7.70 | 
